These results are taken from PubChem BioAssay AID1259407 (Chemical Carcinogenesis Research Information System (CCRIS), 2018).

Calls of active or inactive are those of the source. The rule behind the calls is not given here.

For the data set, the system named is CCRIS mutagenicity, Ames/micronucleus/aberration tests. The data set is described as follows: CCRIS mutagenicity studies.
Where [1] appears, read: Test System: AMES SALMONELLA TYPHIMURIUM, Strain/Indicator: TA97, Metabolic Activation: NONE, Method: PREINCUBATION
The mark [2] stands for this setting: Test System: AMES SALMONELLA TYPHIMURIUM, Strain/Indicator: TA98, Metabolic Activation: NONE, Method: PREINCUBATION
Where [3] appears, read: Test System: AMES SALMONELLA TYPHIMURIUM, Strain/Indicator: TA100, Metabolic Activation: NONE, Method: PREINCUBATION
[4] abbreviates: Test System: AMES SALMONELLA TYPHIMURIUM, Strain/Indicator: TA102, Metabolic Activation: NONE, Method: PREINCUBATION
[5] abbreviates: Test System: AMES SALMONELLA TYPHIMURIUM, Strain/Indicator: TA1535, Metabolic Activation: NONE, Method: PREINCUBATION
The mark [6] stands for this setting: Test System: AMES SALMONELLA TYPHIMURIUM, Strain/Indicator: TA1537, Metabolic Activation: NONE, Method: PREINCUBATION
Setting [7] is: Test System: AMES SALMONELLA TYPHIMURIUM, Strain/Indicator: TA98, Metabolic Activation: NONE, Method: STANDARD PLATE.
[8] abbreviates: Test System: AMES SALMONELLA TYPHIMURIUM, Strain/Indicator: TA98, Metabolic Activation: RAT, LIVER, S-9, AROCLOR 1254, Method: STANDARD PLATE.
[9] abbreviates: Test System: AMES SALMONELLA TYPHIMURIUM, Strain/Indicator: TA100, Metabolic Activation: NONE, Method: STANDARD PLATE.
Setting [10] is: Test System: AMES SALMONELLA TYPHIMURIUM, Strain/Indicator: TA100, Metabolic Activation: RAT, LIVER, S-9, AROCLOR 1254, Method: STANDARD PLATE.
Where [11] appears, read: Test System: AMES SALMONELLA TYPHIMURIUM, Strain/Indicator: TA102, Metabolic Activation: NONE, Method: STANDARD PLATE.

Regarding `O=C1CN(CCN2CC(=O)N(CN3CCOCC3)C(=O)C2)CC(=O)N1CN1CCOCC1`, the mutagenic call reads like this: under setting [1], “inactive; negative”; (Test System: AMES SALMONELLA TYPHIMURIUM, Strain/Indicator: TA97, Metabolic Activation: S-9, Method: PREINCUBATION) “inactive; negative”; under setting [2], “active; positive”; (Test System: AMES SALMONELLA TYPHIMURIUM, Strain/Indicator: TA98, Metabolic Activation: S-9, Method: PREINCUBATION) “inactive; negative”; under setting [3], “inactive; negative”; (Test System: AMES SALMONELLA TYPHIMURIUM, Strain/Indicator: TA100, Metabolic Activation: S-9, Method: PREINCUBATION) “inactive; negative”. Moreover, the mutagenic call under setting [4] was “active; positive” and the mutagenic call (Test System: AMES SALMONELLA TYPHIMURIUM, Strain/Indicator: TA102, Metabolic Activation: S-9, Method: PREINCUBATION) is “inactive; negative”.

Turning to `NC1=CC(=O)C(=O)c2ccccc21`, the mutagenic call reads like this: under setting [1], “active; positive”; (Test System: AMES SALMONELLA TYPHIMURIUM, Strain/Indicator: TA97, Metabolic Activation: RAT, LIVER, S-9, PHENOBARBITAL AND 5,6-BENZOFLAVONE, Method: PREINCUBATION) “active; positive”; under setting [2], “inactive; negative”; (Test System: AMES SALMONELLA TYPHIMURIUM, Strain/Indicator: TA98, Metabolic Activation: RAT, LIVER, S-9, PHENOBARBITAL AND 5,6-BENZOFLAVONE, Method: PREINCUBATION) “active; positive”; under setting [3], “active; positive”; (Test System: AMES SALMONELLA TYPHIMURIUM, Strain/Indicator: TA100, Metabolic Activation: RAT, LIVER, S-9, PHENOBARBITAL AND 5,6-BENZOFLAVONE, Method: PREINCUBATION) “active; positive”. Further, the mutagenic call under setting [4] was “inactive; negative”; the mutagenic call (Test System: AMES SALMONELLA TYPHIMURIUM, Strain/Indicator: TA102, Metabolic Activation: RAT, LIVER, S-9, PHENOBARBITAL AND 5,6-BENZOFLAVONE, Method: PREINCUBATION) was “inactive; negative”; the mutagenic call (Test System: AMES SALMONELLA TYPHIMURIUM, Strain/Indicator: TA104, Metabolic Activation: NONE, Method: PREINCUBATION) is “active; positive”; the mutagenic call (Test System: AMES SALMONELLA TYPHIMURIUM, Strain/Indicator: TA104, Metabolic Activation: RAT, LIVER, S-9, PHENOBARBITAL AND 5,6-BENZOFLAVONE, Method: PREINCUBATION) was “active; positive”; the mutagenic call under setting [5] was “inactive; negative”; the mutagenic call (Test System: AMES SALMONELLA TYPHIMURIUM, Strain/Indicator: TA1535, Metabolic Activation: RAT, LIVER, S-9, PHENOBARBITAL AND 5,6-BENZOFLAVONE, Method: PREINCUBATION) is “inactive; negative”. The mutagenic call reads like this: under setting [6], “inactive; negative”; (Test System: AMES SALMONELLA TYPHIMURIUM, Strain/Indicator: TA1537, Metabolic Activation: RAT, LIVER, S-9, PHENOBARBITAL AND 5,6-BENZOFLAVONE, Method: PREINCUBATION) “active; positive”; (Test System: AMES SALMONELLA TYPHIMURIUM, Strain/Indicator: TA1538, Metabolic Activation: NONE, Method: PREINCUBATION) “inactive; negative”; (Test System: AMES SALMONELLA TYPHIMURIUM, Strain/Indicator: TA1538, Metabolic Activation: RAT, LIVER, S-9, PHENOBARBITAL AND 5,6-BENZOFLAVONE, Method: PREINCUBATION) “inactive; negative”; (Test System: AMES SALMONELLA TYPHIMURIUM, Strain/Indicator: TA2637, Metabolic Activation: NONE, Method: PREINCUBATION) “active; positive”; (Test System: AMES SALMONELLA TYPHIMURIUM, Strain/Indicator: TA2637, Metabolic Activation: RAT, LIVER, S-9, PHENOBARBITAL AND 5,6-BENZOFLAVONE, Method: PREINCUBATION) “active; positive”.

In the case of `CCN(CC)c1ccc(N=Nc2ccc(N=Nc3c(S(=O)(=O)O)cc4ccc(N)cc4c3O)c(OC)c2)cc1`, the mutagenic call under setting [7] is “inactive; negative”; the mutagenic call under setting [8] was “active; positive”; the mutagenic call under setting [9] was “inactive; negative”; the mutagenic call under setting [10] is “inactive; negative”; the mutagenic call (Test System: AMES SALMONELLA TYPHIMURIUM, Strain/Indicator: TA1538, Metabolic Activation: NONE, Method: STANDARD PLATE) was “inactive; negative”; the mutagenic call (Test System: AMES SALMONELLA TYPHIMURIUM, Strain/Indicator: TA1538, Metabolic Activation: RAT, LIVER, S-9, AROCLOR 1254, Method: STANDARD PLATE) was “active; positive”.

Take `CC(C)CCC[C@@H](C)[C@H]1CC[C@H]2[C@@H]3C[C@H]4O[C@]45C[C@@H](O)CC[C@]5(C)[C@H]3CC[C@]12C`: the mutagenic call is, setting by setting: (Test System: CHINESE HAMSTER V-79, Strain/Indicator: V-79/6-THIOGUANINE, Metabolic Activation: NONE) “active; positive”; (Test System: CHINESE HAMSTER V-79, Strain/Indicator: V-79/OUABAIN, Metabolic Activation: NONE) “inactive; negative”.

In the case of `Clc1cncc(Cl)c1`, the mutagenic call (Test System: AMES SALMONELLA TYPHIMURIUM, Strain/Indicator: TA97, Metabolic Activation: NONE, Method: STANDARD PLATE) is “inactive; negative”; the mutagenic call (Test System: AMES SALMONELLA TYPHIMURIUM, Strain/Indicator: TA97, Metabolic Activation: RAT, LIVER, S-9, AROCLOR 1254, Method: STANDARD PLATE) is “inactive; negative”; the mutagenic call under setting [7] was “inactive; negative”; the mutagenic call under setting [8] is “inactive; negative”; the mutagenic call under setting [9] was “inactive; negative”; the mutagenic call under setting [10] is “inactive; negative”. Also, the mutagenic call runs as follows: under setting [11], “inactive; negative”; (Test System: AMES SALMONELLA TYPHIMURIUM, Strain/Indicator: TA102, Metabolic Activation: RAT, LIVER, S-9, AROCLOR 1254, Method: STANDARD PLATE) “inactive; negative”.

Consider `CNC(=O)Oc1cccc2c1OC(C)(C)C2O` (centres undefined), for which the mutagenic call (End Point: IN VIVO MICRONUCLEUS, Test System: BONE MARROW POLYCHROMATIC ERYTHROCYTES, Species: MOUSE, Strain/Sex: KM/MALE, FEMALE, Route: IP INJECTION) is “active; positive”.

On to `NC(=O)CC[C@H](N)C(=O)O`, for which the mutagenic call runs as follows: (End Point: In vitro chromosomal aberrations, Test System: Chinese hamster ovary (CHO) cells, Metabolic Activation: None) “inactive; negative; glutamine, alone or in combination with vitamin c, reduced effect of d”; (End Point: In vivo chromosomal aberrations, Test System: Bone marrow cells, Species: Rat, Strain/Sex: Wistar/Male and female, Route: Oral) “inactive; negative; glutamine, alone or with vitamin c, reduced effect of doxorubicin”; (End Point: In vivo micronucleus, Test System: Peripheral blood cells, Species: Mouse, Strain/Sex: Swiss/Male, Route: Oral) “inactive; negative”.

Regarding `O=C1NC(=O)C(CBr)=C1Cl`, the mutagenic call under setting [9] was “active; positive”.

Take `CCCn1cc2c3c(cccc31)C1C[C@@H](C)CN(C#N)[C@@H]1C2` (some centres undefined): the mutagenic call under setting [10] was “active; positive”.

On to `CNNC`, for which the mutagenic call by setting is: under setting [4], “inactive; negative”; under setting [11], “inactive; negative”; under setting [5], “inactive; negative”; (Test System: AMES SALMONELLA TYPHIMURIUM, Strain/Indicator: TA1535, Metabolic Activation: NONE, Method: STANDARD PLATE) “inactive; negative”; (Test System: AMES SALMONELLA TYPHIMURIUM, Strain/Indicator: TA1535, Metabolic Activation: RAT, LIVER, S-9, AROCLOR 1254, Method: PREINCUBATION) “inactive; negative”; under setting [6], “inactive; negative”. Further, the mutagenic call reads like this: (Test System: AMES SALMONELLA TYPHIMURIUM, Strain/Indicator: TA1537, Metabolic Activation: RAT, LIVER, S-9, AROCLOR 1254, Method: PREINCUBATION) “inactive; negative”; (Test System: AMES SALMONELLA TYPHIMURIUM, Strain/Indicator: TA2638, Metabolic Activation: NONE, Method: STANDARD PLATE) “active; positive”; (Test System: AMES SALMONELLA TYPHIMURIUM, Strain/Indicator: YG7108, Metabolic Activation: NONE, Method: STANDARD PLATE) “active; positive”; (Test System: E. COLI, Strain/Indicator: WP2 (PKM101), Metabolic Activation: NONE, Method: STANDARD PLATE) “active; positive”; (Test System: E. COLI, Strain/Indicator: WP2 UVRA (PKM101), Metabolic Activation: NONE, Method: STANDARD PLATE) “active; positive”.
